Columns and labels:
HepG2 = assay: Cytotoxicity against human HepG2 cells after 48 hrs by MTT assay; format: functional, cell-based; conditions: HepG2, 48 h
HCT-116 = assay: Cytotoxicity against human HCT116 cells after 48 hrs by MTT assay; format: functional, cell-based; conditions: HCT-116, 48 h
MCF-10A = assay: Cytotoxicity against human MCF10A cells after 48 hrs by MTT assay; format: cell-based
NCI-H460 = assay: Cytotoxicity against human NCI-H460 cells after 48 hrs by MTT assay; format: functional, cell-based; conditions: NCI-H460, 48 h
MDA-MB-435 = assay: Cytotoxicity against human MDA-MB-435 cells after 48 hrs by MTT assay; format: functional, cell-based; conditions: MDA-MB-435, 48 h
MDA-MB-231 = assay: Cytotoxicity against human MDA-MB-231 cells after 48 hrs by MTT assay; format: functional, cell-based; conditions: MDA-MB-231, 48 h

Work on `CC[C@@]1(O)C[C@H](O)c2c(O)c3c(c(O)c2[C@H]1C(=O)OC)C(=O)c1cccc(O)c1C3=O` yielded an IC50 (HepG2) of 13.5 µM, an IC50 (HCT-116) of 9.6 µM and an IC50 (MCF-10A) of 7.1 µM. For the same compound, the IC50 (NCI-H460) was 10 µM, the IC50 (MDA-MB-435) was 9.2 µM and the IC50 (MDA-MB-231) was 13.2 µM.

`CC[C@@]1(O)C[C@H](O[C@H]2CC[C@H](O[C@H]3C[C@H](O)[C@H](O[C@H]4CC[C@H](O)[C@H](C)O4)[C@H](C)O3)[C@H](C)O2)c2c(O)c3c(c(O)c2[C@H]1O)C(=O)c1cccc(O)c1C3=O` showed an IC50 (HepG2) of 5.7 µM, an IC50 (HCT-116) of 6.1 µM and an IC50 (MCF-10A) of 6.7 µM. It also gave an IC50 (NCI-H460) of 1.6 µM, an IC50 (MDA-MB-435) of 3.1 µM and an IC50 (MDA-MB-231) of 24.5 µM.

Work on `CC[C@@]1(O)C[C@H](O[C@H]2C[C@H](O)[C@H](O[C@H]3C[C@H](O)[C@H](O)[C@H](C)O3)[C@H](C)O2)c2c(O)c3c(c(O)c2[C@H]1O)C(=O)c1cccc(O)c1C3=O` yielded an IC50 (HepG2) of 2 µM, an IC50 (HCT-116) of 13.2 µM and an IC50 (MCF-10A) of 2.5 µM. For the same compound, the IC50 (NCI-H460) was 0.6 µM and the IC50 (MDA-MB-231) was 10.2 µM.

Compound `CC[C@@]1(O)C[C@H](O[C@H]2CC[C@H](O[C@H]3CC[C@H](O[C@H]4CC[C@H](O)[C@H](C)O4)[C@H](C)O3)[C@H](C)O2)c2c(O)c3c(c(O)c2[C@H]1C(=O)OC)C(=O)c1cccc(O)c1C3=O` has an IC50 (HepG2) of 1.7 µM, an IC50 (HCT-116) of 0.2 µM and an IC50 (MCF-10A) of 1.4 µM. The IC50 (NCI-H460) was 10 µM, the IC50 (MDA-MB-435) was 2.7 µM and the IC50 (MDA-MB-231) was 4.5 µM.

In the case of `CC[C@]1(O)Cc2c(O)c3c(c(O)c2[C@@H](O[C@H]2C[C@H](O)[C@H](O[C@H]4C[C@H](O)[C@H](O[C@H]5CC[C@H](O)[C@H](C)O5)[C@H](C)O4)[C@H](C)O2)C1)C(=O)c1c(O)cccc1C3=O`, the IC50 (HepG2) is reported as 11.3 µM, the IC50 (HCT-116) is reported as 3.1 µM and the IC50 (MCF-10A) is reported as 16.9 µM. The IC50 (NCI-H460) was 0.9 µM, the IC50 (MDA-MB-435) was 6.2 µM and the IC50 (MDA-MB-231) was > 50 µM.

Work on `CC[C@@]1(O)C[C@H](O[C@H]2C[C@H](O)[C@H](O[C@H]3C[C@H](O)[C@H](O[C@H]4C[C@H](O)[C@H](O)[C@H](C)O4)[C@H](C)O3)[C@H](C)O2)c2c(O)c3c(c(O)c2[C@H]1O)C(=O)c1cccc(O)c1C3=O` yielded an IC50 (HepG2) of 8 µM, an IC50 (HCT-116) of 9.8 µM and an IC50 (MCF-10A) of 3.7 µM. It also gave an IC50 (NCI-H460) of 4.8 µM, an IC50 (MDA-MB-435) of 7 µM and an IC50 (MDA-MB-231) of 40.2 µM.

`CC[C@@]1(O)C[C@H](O[C@H]2C[C@H](O)[C@H](O[C@H]3C[C@H](O)[C@H](O[C@H]4CCC(=O)[C@H](C)O4)[C@H](C)O3)[C@H](C)O2)c2c(O)c3c(c(O)c2[C@H]1O)C(=O)c1cccc(O)c1C3=O` gave an IC50 (HepG2) of 0.9 µM, an IC50 (HCT-116) of 1.4 µM and an IC50 (MCF-10A) of 2 µM. For the same compound, the IC50 (NCI-H460) was 0.38 µM, the IC50 (MDA-MB-435) was 5.6 µM and the IC50 (MDA-MB-231) was 5.4 µM.

Work on `CC[C@@]1(O)C[C@H](O[C@H]2C[C@H](O)[C@H](O[C@H]3C[C@H](O)[C@H](O[C@H]4CC[C@H](O)[C@H](C)O4)[C@H](C)O3)[C@H](C)O2)c2c(O)c3c(c(O)c2[C@H]1O)C(=O)c1cccc(O)c1C3=O` yielded an IC50 (HepG2) of 1.5 µM, an IC50 (HCT-116) of 5 µM and an IC50 (MCF-10A) of 3.4 µM. It also gave an IC50 (NCI-H460) of 0.7 µM and an IC50 (MDA-MB-231) of 7.4 µM.

`CC[C@@]1(O)C[C@H](O[C@H]2C[C@H](O)[C@H](O[C@H]3CC[C@H](O[C@H]4CC[C@H](O)[C@H](C)O4)[C@H](C)O3)[C@H](C)O2)c2c(O)c3c(c(O)c2[C@H]1O)C(=O)c1cccc(O)c1C3=O` gave an IC50 (HepG2) of 5.5 µM, an IC50 (HCT-116) of 32.8 µM and an IC50 (MCF-10A) of 5.2 µM. It also gave an IC50 (NCI-H460) of 1.3 µM, an IC50 (MDA-MB-435) of 11.7 µM and an IC50 (MDA-MB-231) of 10.4 µM.

`CC[C@@]1(O)C[C@H](O[C@H]2CC[C@H](O[C@H]3C[C@H](O)[C@H](O[C@H]4CC[C@H](O)[C@H](C)O4)[C@H](C)O3)[C@H](C)O2)c2c(O)c3c(c(O)c2[C@H]1C(=O)OC)C(=O)c1cccc(O)c1C3=O` showed an IC50 (HepG2) of 6.4 µM, an IC50 (HCT-116) of 3.6 µM and an IC50 (MCF-10A) of 4.6 µM. For the same compound, the IC50 (NCI-H460) was 5.7 µM, the IC50 (MDA-MB-435) was 1.9 µM and the IC50 (MDA-MB-231) was 9.3 µM.

`CC[C@@]1(O)C[C@H](O[C@H]2C[C@H](O)[C@H](O[C@H]3CC[C@H](O[C@H]4CC[C@H](OC5CC[C@H](O)[C@H](C)O5)[C@H](C)O4)[C@H](C)O3)[C@H](C)O2)c2c(O)c3c(c(O)c2[C@H]1O)C(=O)c1cccc(O)c1C3=O` (stereo partly drawn) showed an IC50 (HepG2) of 8.5 µM, an IC50 (HCT-116) of 7.2 µM and an IC50 (MCF-10A) of 5.7 µM. It also gave an IC50 (NCI-H460) of 2.2 µM, an IC50 (MDA-MB-435) of 37.9 µM and an IC50 (MDA-MB-231) of 10.1 µM.

With `CC[C@@]1(O)C[C@H](O[C@H]2C[C@H](O)[C@H](O[C@H]3CC[C@H](O[C@H]4C[C@H](O)[C@H](O)[C@H](C)O4)[C@H](C)O3)[C@H](C)O2)c2c(O)c3c(c(O)c2[C@H]1O)C(=O)c1cccc(O)c1C3=O` the IC50 (HepG2) was 6.2 µM, the IC50 (HCT-116) was 5.8 µM and the IC50 (MCF-10A) was 10.5 µM. For the same compound, the IC50 (NCI-H460) was 2.6 µM, the IC50 (MDA-MB-435) was 5.9 µM and the IC50 (MDA-MB-231) was 19.2 µM.

Compound `CC[C@]1(O)Cc2c(O)c3c(c(O)c2[C@@H](O[C@H]2C[C@H](O)[C@H](O[C@H]4CC[C@H](O[C@H]5CC[C@H](O)[C@H](C)O5)[C@H](C)O4)[C@H](C)O2)C1)C(=O)c1c(O)cccc1C3=O` has an IC50 (HepG2) of 8.6 µM, an IC50 (HCT-116) of 0.3 µM and an IC50 (MCF-10A) of 2.2 µM. For the same compound, the IC50 (NCI-H460) was 5.4 µM, the IC50 (MDA-MB-435) was 4.2 µM and the IC50 (MDA-MB-231) was > 50 µM.

With `CC[C@@]1(O)C[C@H](O[C@H]2CC[C@H](O[C@H]3C[C@H](O)[C@H](O[C@H]4CCC(=O)[C@H](C)O4)[C@H](C)O3)[C@H](C)O2)c2c(O)c3c(c(O)c2[C@H]1O)C(=O)c1cccc(O)c1C3=O` the IC50 (HepG2) was 9.3 µM, the IC50 (HCT-116) was 5.4 µM and the IC50 (MCF-10A) was 10.4 µM. For the same compound, the IC50 (NCI-H460) was 2.4 µM, the IC50 (MDA-MB-435) was 3.9 µM and the IC50 (MDA-MB-231) was 23.9 µM.

`CC[C@@]1(O)CCc2c(O)c3c(c(O)c2[C@H]1O)C(=O)c1cccc(O)c1C3=O` showed an IC50 (HepG2) of 13 µM, an IC50 (HCT-116) of 6 µM and an IC50 (MCF-10A) of 11.9 µM. For the same compound, the IC50 (NCI-H460) was 7.3 µM, the IC50 (MDA-MB-435) was 5.7 µM and the IC50 (MDA-MB-231) was 10.9 µM.

`COc1cccc2c1C(=O)c1c(O)c3c(c(O)c1C2=O)C[C@@](O)(C(=O)CO)C[C@@H]3O[C@H]1C[C@H](N)[C@@H](O)[C@H](C)O1` [EPIRUBICIN] showed an IC50 (HCT-116) of 0.4 µM, an IC50 (MCF-10A) of 0.1 µM and an IC50 (NCI-H460) of 0.02 µM. For the same compound, the IC50 (MDA-MB-435) was 0.7 µM and the IC50 (MDA-MB-231) was 0.9 µM.
